Measured values as given in US12180187B2, “1-phenyl-5-azinylpyrazolyl-3-oxyalkyl acids and their use for controlling unwanted plant growth” (BAYER AKTIENGESELLSCHAFT, priority 2019, dated 2024).

Tests used:
[1] = system: DIGSA; experiment: Pre-emergence action against DIGSA, 1280 g/ha; format: in vivo, Digitaria sanguinalis; conditions: visual scoring after about 3 weeks vs untreated controls, 100% = plants have died, 0% = like control plants
Outline: (§1)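 Greenhouse pre-emergence test on sown seeds in sandy loam; soil-surface spray of formulated compound with 0.5% additive at 600 L/ha water. Scored visually, % vs untreated, after about 3 weeks.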

[2] = system: MATIN; experiment: Pre-emergence action against MATIN, 1280 g/ha; format: in vivo, Tripleurospermum inodorum (Matricaria inodora); conditions: scored visually after about 3 weeks vs untreated controls (100% = plants have died)
Outline: as §1

[3] = system: ECHCG; experiment: Post-emergence action against ECHCG, 1.28 kg/ha; format: in vivo, Echinochloa crus-galli; conditions: dosage 1280 g/ha, visual rating about 3 weeks after treatment vs untreated controls
Outline: (§2)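 Activity scored visually roughly 3 weeks after treatment against untreated plants (0% = as control, 100% = dead). Plants grown in sandy loam in greenhouse, treated at one-leaf stage, 2–3 weeks post-sowing, with WP/EC spray containing 0.5% additive at 600 l/ha.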

[4] = system: POAAN; experiment: Post-emergence action against POAAN, 1.28 kg/ha; format: in vivo, Poa annua; conditions: dosage 1280 g/ha, visual rating about 3 weeks after treatment vs untreated controls
Outline: as §2

[5] = system: STEME; experiment: Post-emergence action against STEME, 1.28 kg/ha; format: in vivo, Stellaria media; conditions: dosage 1280 g/ha, visual rating about 3 weeks after treatment vs untreated controls (100% = plants died)
Outline: as §2

[6] = system: ECHCG; experiment: Pre-emergence action against ECHCG, 1280 g/ha; format: in vivo, Echinochloa crus-galli; conditions: visual scoring after about 3 weeks vs untreated controls, 100% = plants have died, 0% = like control plants
Outline: as §1

[7] = system: STEME; experiment: Pre-emergence action against STEME, 1280 g/ha; format: in vivo, Stellaria media; conditions: scored visually after about 3 weeks vs untreated controls (100% = plants have died)
Outline: as §1

[8] = system: MATIN; experiment: Post-emergence action against MATIN, 1.28 kg/ha; format: in vivo, Tripleurospermum inodorum (Matricaria inodora); conditions: dosage 1280 g/ha, visual rating about 3 weeks after treatment vs untreated controls (100% = plants died)
Outline: as §2

[9] = system: POAAN; experiment: Pre-emergence action against POAAN, 1280 g/ha; format: in vivo, Poa annua; conditions: visual scoring after about 3 weeks vs untreated controls, 100% = plants have died, 0% = like control plants
Outline: as §1

[10] = system: KCHSC; experiment: Pre-emergence action against KCHSC, 1280 g/ha; format: in vivo, Bassia scoparia; conditions: scored visually after about 3 weeks vs untreated controls (100% = plants have died)
From the text: 1. Pre-Emergence Herbicidal Effect and Crop Plant Compatibility a) Seeds of mono- and dicotyledonous weed plants are placed in plastic pots in sandy loam soil (doubly sown with one species each of mono- or dicotyledonous weed plants per pot) and covered with soil. The compounds of the invention, formulated in the form of wettable powders (WP) or as emulsion concentrates (EC), are then applied onto the surface of the covering soil as aqueous suspension or emulsion with addition of 0.5% additive at a water application rate equivalent to 600 litres per hectare. After the treatment, the pots are placed in a greenhouse and kept under good growth conditions for the trial plants. After about 3 weeks, the effect of the preparations is scored visually in comparison with untreated controls as percentages. For example, 100% activity=the plants have died, 0% activity=like control plants. 1. Pre-Emergence Effectiveness Tables 1 to 12 below show the effects of selected compounds of the general formula (I) according to Tables 1 and 2 on various harmful plants and at an application rate corresponding to 1280 g/ha, which were obtained by the experimental procedure mentioned above.

[11] = system: ALOMY; experiment: Pre-emergence action against ALOMY, 1280 g/ha; format: in vivo, Alopecurus myosuroides; conditions: visual scoring after about 3 weeks vs untreated controls, 100% = plants have died, 0% = like control plants
Outline: as §1

[12] = system: AMARE; experiment: Pre-emergence action against AMARE, 1280 g/ha; format: in vivo, Amaranthus retroflexus; conditions: scored visually after about 3 weeks vs untreated controls (100% = plants have died)
Outline: as §1

[13] = system: KCHSC; experiment: Post-emergence action against KCHSC, 1.28 kg/ha; format: in vivo, Bassia scoparia; conditions: dosage 1280 g/ha, visual rating about 3 weeks after treatment vs untreated controls (100% = plants died)
Method: • a) Seeds of mono- and dicotyledonous weed plants are placed in plastic pots in sandy loam soil (twin sowing with one species each of mono- or dicotyledonous weed plants per pot), covered with soil and cultivated in a greenhouse under controlled growth conditions. 2 to 3 weeks after sowing, the test plants are treated at the one-leaf stage. The compounds of the invention, formulated in the form of wettable powders (WP) or as emulsion concentrates (EC), are applied to the green parts of the plants as aqueous suspension or emulsion with addition of 0.5% additive at a water application rate equivalent to 600 litres per hectare. After the test plants have been kept in the greenhouse under optimum growth conditions for about 3 weeks, the activity of the preparations is rated visually in comparison to untreated controls. For example, 100% activity=the plants have died, 0% activity=like control plants. As shown by the results, compounds of the general formula (I) of the invention, in post-emergence treatment, have very good herbicidal efficacy (90% to 100% herbicidal action) against harmful plants such as Abutilon theophrasti, Digitaria sanguinalis, Echinochloa crus-galli, Matricaria inodora, Poa annua, at an application rate of 1.28 kg of active substance per hectare.

[14] = system: LOLRI; experiment: Pre-emergence action against LOLRI, 1280 g/ha; format: in vivo, Lolium rigidum; conditions: visual scoring after about 3 weeks vs untreated controls, 100% = plants have died, 0% = like control plants
Outline: as §1

[15] = system: ALOMY; experiment: Post-emergence action against ALOMY, 1.28 kg/ha; format: in vivo, Alopecurus myosuroides; conditions: dosage 1280 g/ha, visual rating about 3 weeks after treatment vs untreated controls
Outline: as §2

[16] = system: AMARE; experiment: Post-emergence action against AMARE, 1.28 kg/ha; format: in vivo, Amaranthus retroflexus; conditions: dosage 1280 g/ha, visual rating about 3 weeks after treatment vs untreated controls (100% = plants died)
Outline: as §2

[17] = system: SETVI; experiment: Pre-emergence action against SETVI, 1280 g/ha; format: in vivo, Setaria viridis; conditions: visual scoring after about 3 weeks vs untreated controls, 100% = plants have died, 0% = like control plants
Outline: as §1

[18] = system: VERPE; experiment: Post-emergence action against VERPE, 1.28 kg/ha; format: in vivo, Veronica persica; conditions: dosage 1280 g/ha, visual rating about 3 weeks after treatment vs untreated controls (100% = plants died)
Outline: as §2

[19] = system: ABUTH; experiment: Post-emergence action against ABUTH, 1.28 kg/ha; format: in vivo, Abutilon theophrasti; conditions: dosage 1280 g/ha, visual rating about 3 weeks after treatment vs untreated controls (100% = plants died)
Outline: as §2

[20] = system: VERPE; experiment: Pre-emergence action against VERPE, 1280 g/ha; format: in vivo, Veronica persica; conditions: scored visually after about 3 weeks vs untreated controls (100% = plants have died)
Outline: as §1

[21] = system: DIGSA; experiment: Post-emergence action against DIGSA, 1.28 kg/ha; format: in vivo, Digitaria sanguinalis; conditions: dosage 1280 g/ha, visual rating about 3 weeks after treatment vs untreated controls
Outline: as §2

[22] = system: SETVI; experiment: Post-emergence action against SETVI, 1.28 kg/ha; format: in vivo, Setaria viridis; conditions: dosage 1280 g/ha, visual rating about 3 weeks after treatment vs untreated controls
Outline: as §2

| Structure (SMILES) | Pre-emergence action against DIGSA [1] | Pre-emergence action against MATIN [2] | Post-emergence action against ECHCG [3] | Post-emergence action against POAAN [4] | Post-emergence action against STEME [5] | Pre-emergence action against ECHCG [6] | Pre-emergence action against STEME [7] | Post-emergence action against MATIN [8] | Pre-emergence action against POAAN [9] | Pre-emergence action against KCHSC [10] | Pre-emergence action against ALOMY [11] | Pre-emergence action against AMARE [12] | Post-emergence action against KCHSC [13] | Pre-emergence action against LOLRI [14] | Post-emergence action against ALOMY [15] | Post-emergence action against AMARE [16] | Pre-emergence action against SETVI [17] | Post-emergence action against VERPE [18] | Pre-emergence action against VERPE [20] | Post-emergence action against DIGSA [21] | other results |
| --- | --- | --- | --- | --- | --- | --- | --- | --- | --- | --- | --- | --- | --- | --- | --- | --- | --- | --- | --- | --- | --- |
| COC(=O)CNC(=O)COc1nn(-c2ccc(F)cc2)c(-c2ccc(F)nc2)c1C(F)(F)F [Example X-020] | 100% | 90% | 100% | 100% | 100% | 100% | 90% | 90% | 100% | 90% | 100% | 90% | 100% | 100% | 100% | 100% | 100% | 100% | 90% |  | Post-emergence action against ABUTH [19]: 90% |
| CON(C)C(=O)COc1nn(-c2ccc(F)cc2F)c(-c2ccc(F)nc2)c1Br [Example X-025] | 100% | 100% | 100% | 100% |  | 100% | 100% | 90% | 100% | 100% | 100% | 100% | 90% | 100% | 100% |  | 100% | 100% | 100% | 100% |  |
| O=C(COc1nn(-c2ccc(F)cc2F)c(-c2ccc(F)nc2)c1Br)NO [Example X-028] | 100% | 100% | 100% | 100% | 90% | 100% | 100% | 100% | 100% | 100% | 90% | 100% | 90% | 100% | 100% |  | 100% | 100% | 90% |  | Post-emergence action against SETVI [22]: 90% |
| O=C(O)COc1nn(-c2ccccc2F)c(-c2ccnnc2)c1Br [IV-002] | 90% | 100% |  | 100% | 100% | 100% | 100% | 90% | 100% | 90% |  | 100% | 90% |  |  | 100% | 100% | 90% |  | 100% | Post-emergence action against ABUTH [19]: 90% |
| CCOC(=O)COc1nn(-c2ccccc2F)c(-c2cncnc2)c1[N+](=O)[O-] [VI-005] | 100% | 100% | 90% | 100% | 100% | 90% | 100% | 90% | 100% | 90% | 90% | 100% | 90% | 100% | 90% | 90% | 100% | 90% | 100% |  | Post-emergence action against ABUTH [19]: 90% |
| COC(=O)[C@H](C)Oc1nn(-c2ccccc2F)c(-c2cncnc2)c1Br [VI-008] | 100% | 90% |  | 100% | 90% |  | 100% | 90% | 100% | 90% |  | 100% | 90% | 100% |  |  | 100% |  |  | 100% | Post-emergence action against ABUTH [19]: 90% |
| CC(Oc1nn(-c2ccccc2F)c(-c2ccc(F)nc2)c1Br)C(=O)O (stereo not drawn) [VII-096] | 100% | 100% | 90% | 100% | 100% | 100% | 100% | 90% | 100% | 100% | 100% | 100% | 90% | 100% | 100% | 100% | 100% | 90% | 100% | 100% | Post-emergence action against SETVI [22]: 90% |
| O=C(O)COc1nn(-c2ccc(F)cc2)c(-c2ccc(F)nc2)c1C(F)(F)F [VII-125] | 100% | 90% | 90% | 100% | 90% | 100% | 90% | 90% | 100% | 100% |  | 90% | 90% | 100% | 100% | 90% | 100% | 100% | 90% | 100% |  |
